Reference: US11224234B2, “Functional chocolate” (IMMD SP. Z.O.O., priority 2016, dated 2022)

Experiment: Pharmacokinetics of trans-Resveratrol in human serum, crossover clinical study
Assay type: in vivo
Settings: single ingestion
Procedure: This was a crossover clinical study on 6 volunteers of 35-65 years old, 3 women and 3 men. It was a multi-arm trial with one-week interval between each arm. Prior to every experiment volunteers were asked not to consume food, which may contain fruit, vegetable or grain polyphenols and tomato-based products. In the morning of the experiment volunteers were asked to abstain from any food and drink only water. The serum of the vein blood was analysed. […] Firstly, a sample was collected before ingesting of a product, then every hour for 4 hours after ingestion. To assess the pharmacokinetics (PK) of t-RSV of our dark and milk chocolate with embedded bilberry and aronia extracts, we undertook a crossover clinical study with the same group of volunteers. On top of these we added into this crossover study a few more groups with Nutella spread where chocolate is only a small ingredient. The design of the study and the sample collection was the same as in the glucose postprandial study described above.

t-RSV AUC 0-4 hours: 105 to 380 ng/mL
t-RSV Max: 100 to 207 ng/mL
Structure (SMILES): Oc1ccc(/C=C/c2cc(O)cc(O)c2)cc1 [t-RSV capsule, trans-Resveratrol]
